Measurements as given in publication PMC10544195, “Identification of novel SCD1 inhibitor alleviates nonalcoholic fatty liver disease: critical role of liver-adipose axis” (Cell Communication and Signaling : CCS, 2023).

Tested on: T1, SCD1
T1 construct: IC50 assay and protein source not described; activity elsewhere measured in mouse OP9 and AML12 cells (native enzyme)
Test: SCD1 inhibition, assay not described
Assay type: cell-based
Settings: assay system not stated

Structure (SMILES) | IC50 [nM]
CNC(=O)c1cccc(NC(=O)N2CCC(Oc3ccccc3Cl)CC2)c1 [A939572] | 2800
c1cc(-c2nc3ccc(OCCCN4CCCC4)cc3o2)ccc1OCCCN1CCCC1 [E6446] | 980
